Results: patent US20250041479A1, “PHOTO-ENZYMATIC PRINTING” (The Board of Trustees of the Leland Stanford Junior …, priority 2021, published 2025)

Key:
Assay type in all cases: physicochemical
[1] = Razo cis-trans thermal conversion in the dark; conditions: after long UV exposure, kept in the dark for 15 minutes
Description: (§1) Razo as a stock solution of 70 mM in DMSO was diluted to 25 μM Razo in buffer (20 mM Tris-HCl, pH 7.4, 40 mM KCl). Absorbance spectra were acquired on a PerkinElmer UV-Vis spectrometer and sample illumination light was from a Lumencor Aura light engine, with a Blue light output centered on 475 nm with 28 nm bandpass filter and UV light output centered on 360 nm with a 28 nm bandpass filter. cis-Razo and trans-Razo Absorbance spectra shapes agreed with those from the paper where Razo was originally developed (Wang, et al. Angew. Chem., Int. Ed. 2010, 49, 5305). We aimed to characterize several features of the isomerization that are relevant to inform printing parameters for patterning of the substrate: light kinetics, dark kinetics, and durability.
After a long UV exposure to drive Razo to the cis dominated photostationary state, the sample was kept in the dark for 15 and 90 minutes.

[2] = Razo cis-trans conversion using light (UV-Vis absorbance spectra)
Description: as §1
After a long Blue (referred to as ‘visible’ in legend) light exposure to drive Razo to a trans dominated photostationary state, the amount of UV light necessary to drive Razo to the cis dominated photostationary state was determined to be roughly 10 seconds at 25% power (approximately 15 mW/cm^2).
After a long UV light exposure to drive Razo to a cis dominated photostationary state, the amount of Blue light necessary to drive Razo to the trans dominated photostationary state was determined to be roughly 10 seconds at 50% power (approximately 50 mW/cm^2).

[3] = Durability of the Razo cis-trans interconversion; conditions: blue then UV to photostationary states, repeated 15 times
Description: as §1
Blue light was applied until the trans-dominated photostationary state was reached (blue curve in FIG. 5). Then UV light was applied until the cis-dominated photostationary state was reached (purple curve in FIG. 5).

In the case of `C[N+]1(CCOc2ccc(/N=N/c3ccc(OCC[N+]4(C)CCCCC4)cc3)cc2)CCCCC1` [Razo], the “relaxation of cis to trans in the dark” value [1] is reported as “almost no relaxation of cis to trans”, the “amount of UV light necessary to drive Razo to the cis dominated photostationary state” value ([2]; 25 μM Razo in buffer (20 mM Tris-HCl, pH 7.4, 40 mM KCl), after long Blue exposure, UV 360 nm at 25% power (approximately 15 mW/cm^2)) is reported as “roughly 10 seconds” and the “amount of Blue light necessary to drive Razo to the trans dominated photostationary state” value ([2]; 25 μM Razo in buffer, after long UV exposure, Blue 475 nm at 50% power (approximately 50 mW/cm^2)) is reported as “roughly 10 seconds”. The “isomerization efficiency over repeated blue/UV cycles” value [3] was “isomerization efficiency is maintained over 15 cycles”.
